In EP0591697B1, “Cloning and characterization of the growth hormone releasing hormone receptor” (Thorner, Michael Oliver, priority 1992, dated 1994):
“Also recorded” adds a separate entry of the source. Where no end group is shown, it is not given here.

Columns and labels:
[1] = system: GHRH-R; assay: GHRH binding assay in crude anterior pituitary membrane pellets (125I-GHRHa); design: species or system ovine; conditions: for displacement of GHRH in ovine pituitary: at 500 nM; for competition for the GHRHa binding site: at 100 nanomolar concentrations
Procedure: Specific binding is defined as the difference in the binding seen with 20 pM iodinated analog alone and binding of the analog in the presence of 10 nM non-iodinated GHRHa.
All steps were performed at 4°C. Frozen ovine or bovine anterior pituitaries (ovine: approximately 1 gm/pituitary obtained from Dr. Ian Clarke, Melbourne, Australia; bovine: approximately 2.5 gm/pituitary special handling from Pel-Freez, of Rogers, Arkansas) were washed of blood, cleaned of connective tissue and homogenized (using a Dounce homogenizer) in 50mM HEPES buffer, 100 mM NaCl, 10mM EDTA, 0.1 µM EGTA, pH 7.4 with 0.5 mM PMSF (phenyl methyl sulfonyl fluoride), 10 µg/ml leupeptin, 10 µg/ml pepstatin A, and 200 U/ml (units/ml) aprotinin. This buffer is used to remove endogenous GTP which might be bound to G proteins and to restore high affinity binding. The homogenate was spun at top speed in a microfuge and the supernatant discarded. The upper (membrane) layer of the pellet was then gently resuspended in binding buffer containing 50 mM Tris buffer, 5 mM EGTA, 5 mM MgCl2, 50µg/ml alamethicin, 30 µg/ml bacitracin and other protease inhibitors as above.
1/50 pituitary equivalent per tube was incubated in binding buffer with approximately 100,000 counts of iodinated probe in a volume of 500 µl at room temperature for 1 hour. The total counts delivered and the percent of counts bound for each tube was determined with 3 to 6 replicates per experimental condition. Saturation binding profiles were analyzed with the computer program Ligand which performs a statistically weighted least squares fit to the exact ligand binding equation in nontransformed coordinates.

[2] = system: GHRH-R; assay: Photoaffinity cross-linking of receptor in pituitary membranes, SDS-PAGE autoradiography; assay type: binding, ovine
Procedure: Photoprobe binding in ovine pituitary membrane pellets was determined by γ-counting and UV induced cross-linking was examined by autoradiagraphy of sodium dodecylsulfate polyacrylamide electrophoresis (SDS-PAGE) gels. ^125I-GHRHa-ANB-NOS probe bound with an affinity of about one nanomole, nM (compared to about 160 picomole, pM, for GHRHa).
Photoprobe binding to membranes was evaluated with crude membrane binding assay and then analyzed further by SDS-PAGE electrophoresis to identify the binding sites. Photoprobes were incubated in the dark, photolysed for 10 minutes with a long wave (366 nm) UV lamp, and then the samples were pelleted. The pellets were counted and then extracted by boiling directly in SDS sample buffer (total SDS extracts). Alternatively, the labeled pellets were extracted in a mild detergent solution (5 mM CHAPS) centrifuged, and the chloroform/methanol concentrated supernatants denatured with SDS buffer (CHAPS extracts). These samples were then electrophoresed in SDS gels and autoradiographed.

[3] = biological target: T1, secretin and VIP receptors (Homo sapiens, UniProt P47872); conditions: human pancreas, cited from earlier work; for inhibition: at 10 µM, 125I-secretin
T1 construct: host or cells: human pancreas

[4] = biological target: T2, GHRH-R (Homo sapiens, UniProt Q02643); assay: Iodinated GHRHa binding to COS cells / COS cell membranes transfected with pCDM8 containing HAP 7 cDNA; conditions: for binding of iodinated GHRH in presence of peptide: 100 nM of peptide
T2 construct: expressed in transfected cells
T2 sequence (Q02643 23-423): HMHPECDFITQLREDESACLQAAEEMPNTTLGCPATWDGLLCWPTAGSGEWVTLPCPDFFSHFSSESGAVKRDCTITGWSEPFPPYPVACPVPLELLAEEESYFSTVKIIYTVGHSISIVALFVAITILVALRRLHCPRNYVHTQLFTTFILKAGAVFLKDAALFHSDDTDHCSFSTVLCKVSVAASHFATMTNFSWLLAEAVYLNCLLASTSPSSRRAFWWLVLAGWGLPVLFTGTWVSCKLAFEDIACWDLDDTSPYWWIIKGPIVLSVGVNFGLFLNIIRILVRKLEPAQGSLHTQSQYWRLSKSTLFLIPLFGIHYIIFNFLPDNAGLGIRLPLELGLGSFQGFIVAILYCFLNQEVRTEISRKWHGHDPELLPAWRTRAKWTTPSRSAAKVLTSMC
Procedure: The bars indicate the total counts bound to the cells after incubation with ^125I-GHRHa or in the presence of gradually increasing amounts of non-iodinated GRF.
Binding in the presence of increasing concentrations of competing peptides is shown. […] Each point represents an N of 6 ± standard error. Non-specific binding was 20-30% of total counts in COS cell membranes, and 40-60% in crude pituitary membranes.
Cos-1 cells were transfected with the vector formed by splicing pCDM8 and HAP cDNA, and Cos-1 cell membranes were prepared 72 hours subsequently. Cos-1 cells were transfected using 10 µg of plasmid DNA per 6x10^5 cells in a 100-mm dish using the DEAE-dextran method described by Cullen. […] COS cell cultures were transfected in parallel with pCDM8 containing a cDNA encoding the rat AT1 angiotensin II receptor.

T1 sequence (P47872 23-440): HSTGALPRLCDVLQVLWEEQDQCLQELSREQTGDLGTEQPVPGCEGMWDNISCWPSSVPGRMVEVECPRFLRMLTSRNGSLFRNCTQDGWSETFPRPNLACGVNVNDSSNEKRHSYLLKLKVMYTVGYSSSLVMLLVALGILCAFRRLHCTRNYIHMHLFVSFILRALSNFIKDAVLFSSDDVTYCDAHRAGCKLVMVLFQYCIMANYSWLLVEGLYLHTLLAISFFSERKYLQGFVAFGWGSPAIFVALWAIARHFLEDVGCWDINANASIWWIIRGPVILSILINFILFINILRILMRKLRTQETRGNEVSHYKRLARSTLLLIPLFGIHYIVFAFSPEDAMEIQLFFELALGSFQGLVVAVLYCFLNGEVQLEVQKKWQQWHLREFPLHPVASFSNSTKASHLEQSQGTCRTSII

O[C@H](CS)[C@H](O)CS (racemic) [DTT, dithiothreitol]
specific binding in the GHRH assay after preincubation ([1]; 1 mM dithiothreitol): completely eliminated

Nc1nc2c(ncn2[C@@H]2O[C@H](COP(=O)(O)OP(=O)(O)OP(O)(O)=S)[C@@H](O)[C@H]2O)c(=O)[nH]1 [GTPγS]
displacement of both photoprobes from membrane pellets ([1]; 50 µM GTPγS): partially displaced | reduction of specific binding of GHRHa radioligand ([1]; 50 µM GTPγS): up to 65% | reduction of 55 kDa cross-linked band ([2]; 50 µM GTPγS): over 50%

CC[C@H](C)[C@H](NC(=O)CNC(=O)[C@H](CC(=O)O)NC(=O)[C@H](CO)NC(=O)[C@@H](N)Cc1c[nH]cn1)C(=O)N[C@@H](Cc1ccccc1)C(=O)N[C@H](C(=O)N[C@@H](CC(=O)O)C(=O)N[C@@H](CO)C(=O)N[C@@H](Cc1ccc(O)cc1)C(=O)N[C@@H](CO)C(=O)N[C@@H](CCCNC(=N)N)C(=O)N[C@@H](Cc1ccc(O)cc1)C(=O)N[C@@H](CCCNC(=N)N)C(=O)N[C@@H](CCCCN)C(=O)N[C@@H](CCC(N)=O)C(=O)N[C@@H](CCSC)C(=O)N[C@@H](C)C(=O)N[C@H](C(=O)N[C@@H](CCCCN)C(=O)N[C@@H](CCCCN)C(=O)N[C@@H](Cc1ccc(O)cc1)C(=O)N[C@@H](CC(C)C)C(=O)N[C@@H](C)C(=O)N[C@@H](C)C(=O)N[C@H](C(=O)N[C@@H](CC(C)C)C(=O)NCC(=O)N[C@@H](CCCCN)C(=O)N[C@@H](CCCNC(=N)N)C(=O)N[C@@H](Cc1ccc(O)cc1)C(=O)N[C@@H](CCCCN)C(=O)N[C@@H](CCC(N)=O)C(=O)N[C@@H](CCCNC(=N)N)C(=O)N[C@H](C(=O)N[C@@H](CCCCN)C(=O)N[C@@H](CC(N)=O)C(=O)N[C@@H](CCCCN)C(N)=O)C(C)C)C(C)C)C(C)C)[C@@H](C)O [PACAP]
displacement of GHRH in ovine pituitary [1]: significant displacement | competition for the GHRHa binding site [1]: no competition; also recorded: did not compete

GHRH(1-29)-NH2
inhibition [3]: 20%

PHM: competing peptide of the VIP family tested at 100 nM (HADGVFTSDFSKLLGQLSAKKYLESLM; ends and bridges not checked; UniProt P01282 81-107, looked up)
binding of iodinated GHRH in presence of peptide [4]: uneffected

VIP: vasoactive intestinal peptide
displacement of GHRH in ovine pituitary [1]: not | competition for the GHRHa binding site [1]: no competition; also recorded: did not compete | effect on 55 kDa cross-linked band ([2]; 100 nM VIP): unaffected | effect on bound counts of GHRHa ([4]; 100 nM VIP, transfected COS cells, Figure 15): no effect | binding of iodinated GHRH in presence of peptide [4]: uneffected | inhibition [3]: 20%

calcitonin
binding of iodinated GHRH in presence of peptide [4]: uneffected

galanin
binding of iodinated GHRH in presence of peptide [4]: uneffected

helodermin
Kd ([3]; using 125I-secretin, read-out: Kds): 200 nM

parathyroid hormone
binding of iodinated GHRH in presence of peptide [4]: uneffected

secretin
binding of iodinated GHRH in presence of peptide [4]: uneffected

somatostatin
binding of iodinated GHRH in presence of peptide [4]: uneffected
